How the values were obtained:
Trypanosoma cruzi [1] = test: Growth inhibition of epimastigote form of Trypanosoma cruzi CL-B5 at 128 uM after 72 hrs by lacZ reporter gene assay; assay type: functional; settings: CL-B5, 72 h, read-out: GI
Trypanosoma cruzi [2] = test: Growth inhibition of epimastigote form of Trypanosoma cruzi CL-B5 at 64 uM after 72 hrs by lacZ reporter gene assay; assay type: functional; settings: CL-B5, 72 h, read-out: GI
Trypanosoma cruzi [3] = test: Growth inhibition of epimastigote form of Trypanosoma cruzi CL-B5 at 256 uM after 72 hrs by lacZ reporter gene assay; assay type: functional; settings: CL-B5, 72 h, read-out: GI
[4] = Growth inhibition of mouse J774 cells at 256 uM after 24 hrs by resazurin reduction assay; assay type: cell-based; settings: read-out: GI
[5] = Growth inhibition of mouse J774 cells at 128 uM after 24 hrs by resazurin reduction assay; assay type: cell-based; settings: read-out: GI
[6] = Growth inhibition of mouse J774 cells at 64 uM after 24 hrs by resazurin reduction assay; assay type: cell-based; settings: read-out: GI
Trypanosoma cruzi [7] = test: Growth inhibition of epimastigote form of Trypanosoma cruzi CL-B5 after 72 hrs by lacZ reporter gene assay; assay type: functional, organism-based; settings: CL-B5, 72 h

## CCCn1c2ccc([N+](=O)[O-])cc2c(=O)n1-c1ccccc1
Trypanosoma cruzi [1]
  inhibition of growth at 128 µM: 76.5%
Trypanosoma cruzi [2]
  inhibition of growth at 64 µM: 71.8%
Trypanosoma cruzi [3]
  inhibition of growth at 256 µM: 86.1%
[4]
  inhibition at 24 h, 256 µM: 0%
[5]
  inhibition at 24 h, 128 µM: 0%
[6]
  inhibition at 24 h, 64 µM: 0%

## CC(C)n1c2ccc([N+](=O)[O-])cc2c(=O)n1Cc1ccc2ccccc2c1
Trypanosoma cruzi [1]
  inhibition of growth at 128 µM: 13%
Trypanosoma cruzi [2]
  inhibition of growth at 64 µM: 10.7%
Trypanosoma cruzi [3]
  inhibition of growth at 256 µM: 24.2%
[4]
  inhibition at 24 h, 256 µM: 0%
[5]
  inhibition at 24 h, 128 µM: 0%
[6]
  inhibition at 24 h, 64 µM: 0%

## CCCOc1c2cc([N+](=O)[O-])ccc2nn1C
Trypanosoma cruzi [1]
  inhibition of growth at 128 µM: 16.9%
Trypanosoma cruzi [2]
  inhibition of growth at 64 µM: 27.4%
Trypanosoma cruzi [3]
  inhibition of growth at 256 µM: 91.2%
[4]
  inhibition at 24 h, 256 µM: 62.4%
[5]
  inhibition at 24 h, 128 µM: 35.3%
[6]
  inhibition at 24 h, 64 µM: 0%

## COc1c2cc([N+](=O)[O-])ccc2nn1Cc1ccccc1
Trypanosoma cruzi [1]
  inhibition of growth at 128 µM: 38.1%
Trypanosoma cruzi [2]
  inhibition of growth at 64 µM: 48.3%
Trypanosoma cruzi [3]
  inhibition of growth at 256 µM: 21.2%
[4]
  inhibition at 24 h, 256 µM: 6.83%
[5]
  inhibition at 24 h, 128 µM: 0%
[6]
  inhibition at 24 h, 64 µM: 0%

## O=C(Cn1ccnc1[N+](=O)[O-])NCc1ccccc1 [BENZNIDAZOLE]
Trypanosoma cruzi [1]
  inhibition of growth at 128 µM: 79.8%
Trypanosoma cruzi [2]
  inhibition of growth at 64 µM: 71%
Trypanosoma cruzi [3]
  inhibition of growth at 256 µM: 82%
Trypanosoma cruzi [7]
  IC50: 27.3 µM
[4]
  inhibition at 24 h, 256 µM: 13%
[5]
  inhibition at 24 h, 128 µM: 14.8%
[6]
  inhibition at 24 h, 64 µM: 13%

## CC1CS(=O)(=O)CCN1/N=C/c1ccc([N+](=O)[O-])o1 (stereo not drawn) [NIFURTIMOX]
Trypanosoma cruzi [1]
  inhibition of growth at 128 µM: 97.1%
Trypanosoma cruzi [2]
  inhibition of growth at 64 µM: 91.6%
Trypanosoma cruzi [3]
  inhibition of growth at 256 µM: 100%
Trypanosoma cruzi [7]
  IC50: 3.61 µM
[4]
  inhibition at 24 h, 256 µM: 25%
[5]
  inhibition at 24 h, 128 µM: 5%
[6]
  inhibition at 24 h, 64 µM: 0%

## CCCCCn1c2ccc([N+](=O)[O-])cc2c(=O)n1Cc1ccccc1
Trypanosoma cruzi [1]
  inhibition of growth at 128 µM: 90%
Trypanosoma cruzi [2]
  inhibition of growth at 64 µM: 85.2%
Trypanosoma cruzi [3]
  inhibition of growth at 256 µM: 90.2%
[4]
  inhibition at 24 h, 256 µM: 81%
[5]
  inhibition at 24 h, 128 µM: 71.8%
[6]
  inhibition at 24 h, 64 µM: 54.1%

## COc1c2cc([N+](=O)[O-])ccc2nn1-c1ccccc1
Trypanosoma cruzi [1]
  inhibition of growth at 128 µM: 0%
Trypanosoma cruzi [2]
  inhibition of growth at 64 µM: 0%
Trypanosoma cruzi [3]
  inhibition of growth at 256 µM: 2.81%

## Cn1c(=O)c2cc([N+](=O)[O-])ccc2n1-c1ccccc1
Trypanosoma cruzi [1]
  inhibition of growth at 128 µM: 19.4%
Trypanosoma cruzi [2]
  inhibition of growth at 64 µM: 14.2%
Trypanosoma cruzi [3]
  inhibition of growth at 256 µM: 26.6%
[4]
  inhibition at 24 h, 256 µM: 43.1%

## Cn1c2ccccc2c(=O)n1Cc1ccccc1
Trypanosoma cruzi [1]
  inhibition of growth at 128 µM: 36.6%
Trypanosoma cruzi [2]
  inhibition of growth at 64 µM: 28%
Trypanosoma cruzi [3]
  inhibition of growth at 256 µM: 55.8%

## CC(C)n1c2ccc([N+](=O)[O-])cc2c(=O)n1-c1ccccc1
Trypanosoma cruzi [1]
  inhibition of growth at 128 µM: 54.7%
Trypanosoma cruzi [2]
  inhibition of growth at 64 µM: 28.3%
Trypanosoma cruzi [3]
  inhibition of growth at 256 µM: 84%
[4]
  inhibition at 24 h, 256 µM: 16.8%
[5]
  inhibition at 24 h, 128 µM: 0%
[6]
  inhibition at 24 h, 64 µM: 0%

## CC(C)Oc1c2cc([N+](=O)[O-])ccc2nn1Cc1ccc2ccccc2c1
Trypanosoma cruzi [1]
  inhibition of growth at 128 µM: 76.6%
Trypanosoma cruzi [2]
  inhibition of growth at 64 µM: 76.5%
Trypanosoma cruzi [3]
  inhibition of growth at 256 µM: 63.7%
[6]
  inhibition at 24 h, 64 µM: 26.5%

## CCCOc1c2cc([N+](=O)[O-])ccc2nn1Cc1ccccc1
Trypanosoma cruzi [1]
  inhibition of growth at 128 µM: 26.1%
Trypanosoma cruzi [2]
  inhibition of growth at 64 µM: 15.7%
Trypanosoma cruzi [3]
  inhibition of growth at 256 µM: 0%
[4]
  inhibition at 24 h, 256 µM: 0%
[5]
  inhibition at 24 h, 128 µM: 0%
[6]
  inhibition at 24 h, 64 µM: 0%

## O=c1c2cc([N+](=O)[O-])ccc2n(Cc2ccccc2)n1Cc1ccccc1
Trypanosoma cruzi [1]
  inhibition of growth at 128 µM: 83.7%
Trypanosoma cruzi [2]
  inhibition of growth at 64 µM: 74.5%
Trypanosoma cruzi [3]
  inhibition of growth at 256 µM: 69.2%
[4]
  inhibition at 24 h, 256 µM: 57.9%
[5]
  inhibition at 24 h, 128 µM: 64%
[6]
  inhibition at 24 h, 64 µM: 9.77%

## CCCn1c2ccc([N+](=O)[O-])cc2c(=O)n1Cc1ccc2ccccc2c1
Trypanosoma cruzi [1]
  inhibition of growth at 128 µM: 70.4%
Trypanosoma cruzi [2]
  inhibition of growth at 64 µM: 78%
Trypanosoma cruzi [3]
  inhibition of growth at 256 µM: 41.9%
[4]
  inhibition at 24 h, 256 µM: 15.5%
[5]
  inhibition at 24 h, 128 µM: 11.9%
[6]
  inhibition at 24 h, 64 µM: 0%

## COc1nn(-c2ccccc2)c2ccc([N+](=O)[O-])cc12
Trypanosoma cruzi [1]
  inhibition of growth at 128 µM: 40.3%
Trypanosoma cruzi [2]
  inhibition of growth at 64 µM: 21.4%
Trypanosoma cruzi [3]
  inhibition of growth at 256 µM: 56.3%
[4]
  inhibition at 24 h, 256 µM: 27.1%

## Cn1c(=O)c2cc([N+](=O)[O-])ccc2n1Cc1ccccc1
Trypanosoma cruzi [1]
  inhibition of growth at 128 µM: 70.3%
Trypanosoma cruzi [2]
  inhibition of growth at 64 µM: 39.8%
Trypanosoma cruzi [3]
  inhibition of growth at 256 µM: 80.6%
[4]
  inhibition at 24 h, 256 µM: 6.33%
[5]
  inhibition at 24 h, 128 µM: 6.91%
[6]
  inhibition at 24 h, 64 µM: 0.55%

## Cn1c(=O)c2cc([N+](=O)[O-])ccc2n1C
Trypanosoma cruzi [1]
  inhibition of growth at 128 µM: 42.8%
Trypanosoma cruzi [2]
  inhibition of growth at 64 µM: 42.7%
Trypanosoma cruzi [3]
  inhibition of growth at 256 µM: 68%
[4]
  inhibition at 24 h, 256 µM: 0%
[5]
  inhibition at 24 h, 128 µM: 0%
[6]
  inhibition at 24 h, 64 µM: 11.4%

From ChEMBL document CHEMBL2150935, “Synthesis, biological evaluation and chemometric analysis of indazole derivatives. 1,2-Disubstituted 5-nitroindazolinones, new prototypes of antichagasic drug” (Eur J Med Chem, 2012)
